The term EC50 denotes the midpoint of the concentration-response curve. What is called half-life is how long it takes for the measured level to halve. A lower half-life goes with rapid decline. One may read the microsomal CLint as a measure of how fast metabolising enzymes remove a compound, apart from limits set by blood flow. A high value points to rapid turnover. For orientation: solubility means the concentration that dissolves in the medium under given conditions. In general, melting point refers to the temperature of the solid-liquid transition.

Here are results for six compounds from patent US8193192B2, “Heterocyclic FXR binding compounds” (Phenex Pharmaceuticals AG, priority 2006, dated 2012).

The structures appear in SMILES notation. In brackets after ≈: the same amount, converted by molar mass.

The target in data set [1] is T1, human farnesoid X receptor (FXR) alpha ligand binding domain (Homo sapiens, UniProt Q96RI1).
T1 construct: made in house; host or cells: E. coli BL21(DE3), vector pDEST15
T1 sequence (Q96RI1 187-472 isoform Q96RI1-2): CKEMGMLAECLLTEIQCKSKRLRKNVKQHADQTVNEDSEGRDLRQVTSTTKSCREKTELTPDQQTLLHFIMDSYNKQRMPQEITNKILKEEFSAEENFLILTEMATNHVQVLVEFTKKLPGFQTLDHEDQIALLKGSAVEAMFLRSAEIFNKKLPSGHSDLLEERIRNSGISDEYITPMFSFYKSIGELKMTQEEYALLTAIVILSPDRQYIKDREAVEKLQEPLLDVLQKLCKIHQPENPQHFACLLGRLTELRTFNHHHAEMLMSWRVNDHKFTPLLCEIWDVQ
The data set can be described thus: FRET activity assay (ligand mediated cofactor peptide interaction, LANCE). The note with it: FXR-LBD/SRC-1 peptide interaction. It counts as biochemical. On the procedure:
Determination of a ligand mediated cofactor peptide interaction to quantify ligand binding to the nuclear receptor Farnesoid X Receptor (FXR) was performed as follows:
Preparation of human farnesoid X receptor (FXR) alpha ligand binding domain: The human FXRalpha ligand binding domain (LBD) was expressed in E. coli strain BL21(DE3) as an N-terminally glutathione-S-transferase (GST) tagged fusion protein. The DNA encoding the FXR ligand binding domain was cloned into vector pDEST15 (Invitrogen). Expression was under control of an IPTG inducible T7 promoter. The amino acid boundaries of the ligand binding domain were amino acids 187-472 of Database entry NM_005123 (RefSeq). Expression and purification of the FXR-LBD: An overnight preculture of a transformed E. coli strain was diluted 1:20 in LB-Ampicillin medium and grown at 30° C. to an optical density of OD600=0.4-0.6. Gene expression was then induced by addition of 0.5 mM IPTG. Cells were incubated an additional 6 h at 30° C., 180 rpm. Cells were collected by centrifugation (7000×g, 7 min, room temperature). Per liter of original cell culture, cells were resuspended in 10 ml lysis buffer (50 mM Glucose, 50 mM Tris pH 7.9, 1 mM EDTA and 4 mg/ml lysozyme) and left on ice for 30 min. Cells were then subjected to sonication and cell debris removed via centrifugation (22000×g, 30 min, 4° C.). Per 10 ml of supernatant 0.5 ml prewashed Glutathione 4B sepharose slurry (Qiagen) was added and the suspension kept slowly rotating for 1 h at 4° C. Glutathione 4B sepharose beads were pelleted by centrifugation (2000 g, 15 sec, 4° C.) and washed twice in wash buffer (25 mM Tris, 50 mM KCl, 4 mM MgCl2 and 1 M NaCl). The pellet was resuspended in 3 ml elution buffer per liter of original culture (elution buffer: 20 mM Tris, 60 mM KCl, 5 mM MgCl2 and 80 mM glutathione added immediately prior to use as powder). The suspension was left rotating for 15 min at 4° C., the beads pelleted and eluted again with half the volume of elution buffer than the first time. The eluates were pooled and dialysed overnight in 20 mM Hepes buffer (pH 7.5) containing 60 mM KCl, 5 mM MgCl2 as well as 1 mM dithiothreitol and 10% (v/v) glycerol. The protein was analysed by SDS-Page.
The method measures the ability of putative ligands to modulate the interaction between the purified bacterial expressed FXR ligand binding domain (LBD) and a synthetic biotinylated peptide based on residues 676-700 of SRC-1 (LCD2, 676-700). The sequence of the peptide used was B-[…]-COOH where the N-terminus was biotinylated (B). The ligand binding domain (LBD) of FXR was expressed as fusion protein with GST in BL-21 cells using the vector pDEST15. Cells were lysed by sonication, and the fusion proteins purified over glutathione sepharose (Pharmacia) according to the manufacturers instructions. […] For ease of handling and reduction of background from compound fluorescence LANCE technology makes use of generic fluorophore labels and time resolved detection Assays were done in a final volume of 25 μl in a 384 well plate, in a Tris-based buffer (20 mM Tris-HCl pH 7.5; 60 mM KCl, 5 mM MgCl2; 35 ng/μl BSA), containing 20-60 ng/well recombinantly expressed FXR-LBD fused to GST, 200-600 nM N-terminally biotinylated peptide, representing SRC1 aminoacids 676-700, 200 ng/well Streptavidin-xIAPC conjugate (Prozyme) and 6-10 ng/well Eu W1024-antiGST (Perkin Elmer). […]
In general terms: TR-FRET usually uses a lanthanide donor and a delayed reading to cut background.

Data set [2] is described as follows: PAMPA permeability assay. It counts as in vitro ADME. Conditions: % of compound found in the receiver compartment after 16 hours; PBS pH 7.4, 5% DMSO, 23° C. Here is the method:
Artificial membrane permeability was determined as follows: Tested compounds were dissolved to 10 mM in 100% DMSO. Permeability of compounds was measured in PBS (pH 7.4), 5% DMSO at 23° C. Safire (Tecan) plate reader was used for measurement the UV/Vis absorption. Protocol: Dilute stocks of tested compounds and controls with PBS to 1.67 mM and mix well by pipetting, add 280 μl of PBS, 5% DMSO to acceptor plate, add 5 μl of 2% L-α-Phosphatidylcholine suspension in dodecane to the membrane of donor plate. Immediately add 98 μl of PBS to donor plate and make the sandwich with acceptor plate. Add 42 μl of tested compounds and controls dilutions to […], cover the plate, place into camera and incubate for 16 hours. Make the equilibrium plate, add 225 μl of PBS, 3.7% DMSO and 25 μl of tested compounds and controls dilutions to UV plate. After 16 hours pull the donor plate out and transfer 250 μl from acceptor plate to UV plate. Scan UV plate on Safire (Tecan) plate reader from […]. Permeability is reported in % of compound found in the receiver compartment after the incubation period. Applying this protocol, PAMPA permeabilities of examples and reference compounds were determined as follows (see Table 4): […]

Data set [3] in a line: Microsomal stability assay. It counts as in vitro ADME. Conditions: pH 7.4; mouse liver microsomes, 37° C. Here is the method: Microsomal Stability Assay
In vitro assays were performed to evaluate the metabolic stability of test items in liver microsomes originating from mouse. Preparation of working standards of test items: Working solutions were prepared for each calibration level by appropriate dilution of the corresponding stock solution, depending on each compound's solubility in acetonitrile or acetonitrile/water. Calibration standards were prepared by spiking 196 μl standard matrix with 4 μl of the corresponding working solution. The standard matrix consists of 0.15 mg/ml of microsomal protein in phosphate buffer (100 mM pH 7.4), the final standard solutions contain 2% acetonitrile. The samples and standard solutions were extracted with ethyl acetate, isolation of the compounds was performed by addition of 600 μl ethyl acetate containing the internal standard (0.1 μM) to 200 μl sample and calibration standard. After vigorously shaking (10 minutes) and centrifugation (5000 g) the aqueous phase was separated by freezing in an acetone/dry ice bath and the organic phase is evaporated to dryness using a vacuum centrifuge. Samples were reconstituted in 200 μl acetonitrile/water mix (1:1 v/v) and subsequently subjected to LC-MS/MS. The incubation solution (180 μl) consisted of 90 μl of a microsomal suspension of 0.33 mg/ml of protein in phosphate buffer 100 mM pH 7.4 and 90 μl NADP-regenerating system. The reaction was initiated by the addition of 20 μl of test compound (in 20% acetonitrile) to the preincubated microsomes/buffer mix at 37° C. 200 μl samples were removed from the incubation after 0, 5, 10, and 30 minutes and processed for ethyl acetate extraction as described above. Negative controls using boiled microsomes (boiling water bath, 25 minutes) without regenerating system were run in parallel. The amount of compound in the samples is expressed as percentage of remaining compound compared to time point zero (=100%). These percentages were plotted against the corresponding time points. Intrinsic clearance (CLint) and half-life (t1/2) estimates were determined using the rate of parent disappearance and following formula (1) and (2). (1) CLint=(−k)×V×fu. (2) t1/2=ln 2/−k. Where CLint=intrinsic clearance [μl/min/mg protein], t1/2=half life [min], k=slope from the linear regression of log [test compound] versus time plot [1/min]. V=6666.7; fu=unbound fraction in the blood. Applying this protocol gave microsomal stabilities for examples and reference compounds as listed below in Table 6: […]

A short description of data set [4]: Aqueous solubility assay, Protocol B, shake-flask method. Type of data set: physicochemical. The note with it: 10 mM PBS buffer with 1% MeOH, kinetic from dmso stock, 10 mM PBS buffer pH 7.4, 1% MeOH, room temperature, read-out: Aqueous solubility pH 7.4 (μM) (±standard deviation), shake-flask method. On the procedure:
(§1) Aqueous solubility of compounds was determined by nephelometry or by shake-flask method as follows:
Protocol B, Shake-Flask Method:
Sample preparation: Sample and standard solution preparation is performed by mixing equal volumes of acetonitrile containing the internal standard (1 μM final concentration) with sample and calibration standard solutions (100 μl). After vigorously shaking (10 seconds) the samples are centrifuged (6000 g) for 5 minutes at 20° C. Aliquots of the particle-free supernatants are transferred to 200 μl sample vials and subsequently subjected to LC-MS/MS analysis. Assay procedure: Test concentration was 100 μM in 10 mM PBS buffer pH 7.4 with a final MeOH concentration of 1%. The volume of the incubation solution was 500 μl. Depending on each compound's solubility in MeOH, the stock concentration and the incubation concentration was adapted. The test solutions in quadruplicates were shaken at 300 rpm over a 20 hours period at room temperature, followed by centrifugation at 20000 g for 30 minutes to separate the solid phase. 100 μl of particle free sample are added to 100 μl acetonitrile containing the internal standard. The aqueous solubility of the compounds was determined by measuring the concentration of the PBS buffer supernatant by HPLC-MS/MS. Aqueous solubilities of examples and reference compounds are listed below in Table 3.

For data set [5] the following is noted: The Merck index, 10th edition; cited from earlier work.
Data set [6] is described as follows: Aqueous solubility assay, Protocol A, nephelometry method. It counts as physicochemical. Conditions: PBS with 5% DMSO, aqueous with cosolvent or surfactant or cyclodextrin, kinetic from dmso stock, PBS pH 7.4, 5% DMSO, 23° C. Here is the method: as §1
Protocol A, Nephelometry Method:
Solubility of compounds was measured in PBS (pH 7.4), 5% DMSO at 23° C. Nepheloskan Ascent (Thermo Electron Corporation) nephelometer was used for measurement of light scattering. Tested compounds were dissolved in DMSO to 10 mM. Prior to measurement the compounds were further diluted with PBS in the wells to final compound concentrations of 100, 70, 50, 35, 25, 17, 12 and <10 μg/ml.
The plates were incubated at room temperature for 24 hours to reach equilibrium and the scattered light was measured. Assay validation: Aqueous solubility of acetylsalicylic acid was determined to validate the assay. […] Aqueous solubilities of examples and reference compounds are listed below in Table 2.

`CC(C)c1onc(-c2c(Cl)cccc2Cl)c1COc1ccc(Oc2cccc(C(=O)O)c2)cn1` [Example 2, 3-(6-((3-(2,6-Dichlorophenyl)-5-isopropylisoxazol-4-yl)methoxy)pyridin-3-yloxy)benzoic acid] had an EC50 in data set [1] of at most 1000 nM. Further, the “PAMPA Permeability” value in data set [2] amounted to 43%.

Turning to `CC(C)c1onc(-c2c(Cl)cccc2Cl)c1COc1ccc(Oc2ccc(C(=O)NS(C)(=O)=O)cc2)cn1` [Example 4, 4-(6-((3-(2,6-Dichlorophenyl)-5-isopropylisoxazol-4-yl)methoxy)pyridin-3-yloxy)-N-(methylsulfonyl)benzamide], the melting point lay in the range of 182 to 184 °C. In addition, the concentration for a half-maximal effect (EC50) in data set [1] was at most 1000 nM. In data set [3], this compound displayed a half-life of 30 min and a microsomal CLint of 153 µL/min/mg. Besides, in data set [4], the solubility at 20 h stood at 114 µM (≈ 65.7 µg/mL).

With `CC(C)c1onc(-c2c(Cl)cccc2Cl)c1COc1ccc(/C=C/c2cccc(C(=O)O)c2)c(Cl)c1` [Compound B, reference compound], in data set [2], the “PAMPA Permeability” value was 7%.

As for `CC(=O)Oc1ccccc1C(=O)O` [acetylsalicylic acid], in data set [5], the “Aqueous solubility, reported literature value” was “at least 2.17 mg/ml”.

The compound `CC(C)c1onc(-c2c(Cl)cccc2Cl)c1COc1ccc(Oc2ccc(C(=O)O)cc2)cn1` [Example 1, 4-(6-((3-(2,6-Dichlorophenyl)-5-isopropylisoxazol-4-yl)methoxy)pyridin-3-yloxy)benzoic acid] registered an EC50 in data set [1] of at most 1000 nM. Besides, the “PAMPA Permeability” value in data set [2] was found to be 54%. Moreover, the solubility at 24 h in data set [6] is above 200 µM.

In data set [1], `CC(C)c1onc(-c2c(Cl)cccc2Cl)c1COc1ccc(Oc2ccc(C(=O)O)cc2)nn1` [Example 5, 4-(6-((3-(2,6-Dichlorophenyl)-5-isopropylisoxazol-4-yl)methoxy)pyridazin-3-yloxy)benzoic acid] gave an EC50 of at most 1000 nM.
